According to patent US8124637B2, “Anthra [1, 2-d]imidazole-6,11-dione derivatives, preparation method and application thereof” (National Defense Medical Center, priority 2010, dated 2012):

Legend:
[1] = tested on: hTERT promoter (PhTERT) expression; test: SEAP assay (PhTERT-SEAP reporter, H1299); type: cell-based, human; settings: Homo sapiens, NCI-H1299, PhTERT-SEAP (H1299); for activity at 1 µM: read-out: Relative SEAP activity (%); for activity at 10 µM / activity at 100 µM: read-out: Relative SEAP activity (%) (converted)
Protocol: H1299 were grown in RPMI 1640 media supplemented with 10% fetal bovine serum, 100 units/mL penicillin and […] streptomycin in a humidified atmosphere with 5% CO2 at 37° C. Culture media were changed every three days. To establish stable cell lines that the expression of hTERT could be monitored by a reporter system, a about 3.3 kbp DNA fragment ranging from −3338 to +1 bp of the hTERT gene (hTERT promoter, PhTERT) was subcloned upstream to a secreted alkaline phosphatase gene (SEAP) and transfected into H1299 bp electroporation. The stable clones were selected using G418. The stable clones derived from H1299 were cultured using conditions that are similar to their parental cells.
Secreted alkaline phosphatase was used as the reporter system to monitor the transcriptional activity of hTERT. Here, about 10^4 cells each were grown in 96-well plates and incubated at 37° C. for 24 hours and changed with fresh media. Varying amounts of drugs were added and cells were incubated for another 24 hours. Culture media were collected and heated at 65° C. for 10 min to inactivate heat-labile phosphatases. An equal amount of SEAP buffer (2 M diethanolamine, 1 mM MgCl2, and 20 mM L-homoarginine) was added to the media and p-nitrophenyl phosphate was added to a final concentration of 12 mM. Absorptions at 405 nm were taken, and the rate of absorption increase is determined (the increasing rate of absorbance at 405 nm was used to represent the activity of SEAP).

[2] = MTT assay (relative cell survival), H1299; settings: human, H1299 non-small cell lung cancer cells (PhTERT-SEAP), Relative MTT viability (%)
Protocol: Further, cells were subjected to MTT assay to compare the relative toxicity or effect of each compound on cell proliferation and activity.
The above-described cells are cultured in a 96-well plate, to which was added with 25 μl MTT solution, and cultured in a 37° C. carbon dioxide incubator for 4 hours. Then, 100 μl Lysis buffer is added and incubated in a 37° C. carbon dioxide incubator overnight. An ELISA reader (Bio-Rad Model 450) is used to read optical density (O.D.) at 550 nm.
After being subjected to different compound treatments for 72 hours, cells were treated with a fixed amount of MTT solution for 28 hours. Then, DMSO was used to dissolve back formazan, an O. D. value was detected at wavelength in the range of 550/670 nm, and calculated accordingly the cell survival rate (as shown in Table 1).

Row | Structure (SMILES) | activity at 1 µM [1] [%] | activity at 10 µM [1] [%] | activity at 100 µM [1] [%] | viability at 72 h, 1 µM [2] [%] | viability at 72 h, 10 µM [2] [%] | viability at 72 h, 100 µM [2] [%]
1 | CN(C)Cc1nc2ccc3c(c2[nH]1)C(=O)c1ccccc1C3=O [CL02, 2-((dimethylamino)methyl)-1H-anthra[1,2-d]imidazole-6,11-dione] | 83.6 ± 8.52 | < 50 | -2.26 | 98.9 ± 6.37 | > 50 | –
2 | CCN(C)Cc1nc2ccc3c(c2[nH]1)C(=O)c1ccccc1C3=O [CL03, 2-((ethylmethylamino)methyl)-1H-anthra[1,2-d]imidazole-6,11-dione] | 97.1 ± 12 | < 50 | -2.69 | 98.9 ± 3.64 | > 50 | –
3 | CCCN(C)Cc1nc2ccc3c(c2[nH]1)C(=O)c1ccccc1C3=O [CL05, 2-((methylpropylamino)methyl)-1H-anthra[1,2-d]imidazole-6,11-dione] | 96 ± 6.58 | < 50 | -0.38 | 93.5 ± 7.25 | – | –
4 | CN(Cc1nc2ccc3c(c2[nH]1)C(=O)c1ccccc1C3=O)CC1OCCO1 [CL08, 2-(((1,3-dioxolan-2-yl)-N-methylmethanamino)methyl)-1H-anthra[1,2-d]imidazole-6,11-dione] | 90.4 ± 2.87 | 68.7 | 6.78 | 104 ± 3.91 | 89.8 | 28.3
5 | COc1cccc(CN(C)Cc2nc3ccc4c(c3[nH]2)C(=O)c2ccccc2C4=O)c1 [CL09, 2-((3-methoxy-N-methybenzylamino)methyl)-1H-anthra[1,2-d]imidazole-6,11-dione] | 105 ± 3.38 | 78.1 | -3.01 | 96.6 ± 5.02 | 97.6 | 9.24
6 | O=C1c2ccccc2C(=O)c2c1ccc1nc(CN(Cc3ccccn3)Cc3ccccn3)[nH]c21 [CL10, 2-((di-(2-picolyl)amino)methyl)-1H-anthra[1,2-d]imidazole-6,11-dione] | 86.5 ± 3.63 | -6.44 | -7.58 | 101 ± 5.98 | – | –
7 | O=C1c2ccccc2C(=O)c2c1ccc1nc(CNCc3ccccc3C(F)(F)F)[nH]c21 [CL12, 2-((2-(trifluoromethyl)benzylamino)methyl)-1H-anthra[1,2-d]imidazole-6,11-dione] | 87.3 ± 3.26 | 81.2 | -1.71 | 98.5 ± 5.49 | 96.3 | 6.32
8 | O=C1c2ccccc2C(=O)c2c1ccc1nc(CNCc3ccc(C(F)(F)F)cc3)[nH]c21 [CL14, 2-((4-(trifluoromethyl)benzylamino)methyl)-1H-anthra[1,2-d]imidazole-6,11-dione] | 51.6 ± 0.68 | 78.5 | 2.56 | 74.3 ± 4.04 | 10.6 | –
9 | O=C1c2ccccc2C(=O)c2c1ccc1nc(CNCc3ccc4c(c3)OCO4)[nH]c21 [CL15, 2-((piperonylamino)methyl)-1H-anthra[1,2-d]imidazole-6,11-dione] | 74.5 ± 14.3 | 74.6 ± 17.4 | 1.32 | 109 ± 2.02 | 103 | 14.2
10 | O=C1c2ccccc2C(=O)c2c1ccc1nc(CN3CCCCCC3)[nH]c21 [CL18, 2-((azepan-1-yl)methyl)-1H-anthra[1,2-d]imidazole-6,11-dione] | 107 ± 5.16 | 66.5 | 3.79 | 104 ± 6.82 | 85.1 | –
11 | O=C1c2ccccc2C(=O)c2c1ccc1nc(CN3CCC4(CC3)OCCO4)[nH]c21 [CL19, 2-((1,4-dioxa-8-azaspiro[4.5]decane-8-yl)methyl)-1H-anthra[1,2-d]imidazole-6,11-dione] | 97 ± 1.84 | 95.5 | 14.1 | 103 ± 2.09 | 79.2 | 14.8
